Reference: article PMC11212140, “Molecular Bidents with Two Electrophilic Warheads as a New Pharmacological Modality” (ACS Central Science, 2024)

Assays:
Test in all cases: KiNativ profiling in H3255 cells
Format in all cases: cell-based, human
[1] = tested on: T1, LATS1; settings: 2.5 µM
T1 construct: purchased ActivX Biosciences (KiNativ)
Description: (§1) H3255 cells were plated with 6.5x10^6 per condition in fresh media in 15 cm plates and treated the 80% confluency for 2 hours with DMSO or 2.5 μM of ZNL-0056. To harvest cells, plates were washed 3 times with cold PBS, then collected by scraping into 4 mL of cold PBS containing protease and phosphatase inhibitors. Cells were pelleted by centrifugation at 1350 g at 4 ℃ for 5 minutes and immediately frozen in liquid nitrogen. The frozen samples were sent to ActivX Biosciences (La Jolla, CA) for the remainder of the KiNativ profiling experiment4. […]

[2] = tested on: T2, RSK2 domain1; settings: 2.5 µM
T2 construct: RSK2 domain1; purchased ActivX Biosciences (KiNativ)
Description: as §1

[3] = tested on: T3, TLK2; settings: 2.5 µM
T3 construct: purchased ActivX Biosciences (KiNativ)
Description: as §1

[4] = tested on: T4, Erk2; settings: 2.5 µM; Lys2; DLKPSNLLLNTTCDLK
T4 construct: purchased ActivX Biosciences (KiNativ)
Description: as §1

[5] = tested on: p38d, p38g; settings: 2.5 µM; Lys2; DLKPGNLAVNEDCELK
Description: as §1

[6] = tested on: T5, MST2; settings: 2.5 µM; Lys1; ESGQVVAIKQVPVESDLQEIIK
T5 construct: purchased ActivX Biosciences (KiNativ)
Description: as §1

[7] = tested on: T6, ZC2/TNIK; settings: 2.5 µM; Lys1; TGQLAAIKVMDVTGDEEEEIKQEINMLKK
T6 construct: purchased ActivX Biosciences (KiNativ)
Description: as §1

[8] = tested on: T7, ARAF; settings: 2.5 µM; Lys2; DLKSNNIFLHEGLTVK
T7 construct: purchased ActivX Biosciences (KiNativ)
Description: as §1

[9] = tested on: T8, CK1g1; settings: 2.5 µM; Lys2; DVKPENFLIGR
T8 construct: purchased ActivX Biosciences (KiNativ)
Description: as §1

[10] = tested on: MAPKAPK2, MAPKAPK3; settings: 2.5 µM; Lys2; DVKPENLLYTSK
Description: as §1

[11] = tested on: T9, MAP2K1; settings: 2.5 µM; Lys2; IMHRDVKPSNILVNSR
T9 construct: purchased ActivX Biosciences (KiNativ)
Description: as §1

[12] = tested on: T10, RSK2 domain2; settings: 2.5 µM; Lys2; DLKPSNILYVDESGNPESIR
T10 construct: RSK2 domain2; purchased ActivX Biosciences (KiNativ)
Description: as §1

[13] = tested on: T11, RON; settings: 2.5 µM; Lys1; IQCAIKSLSR
T11 construct: purchased ActivX Biosciences (KiNativ)
Description: as §1

[14] = tested on: PCTAIRE2, PCTAIRE3; settings: 2.5 µM; Lys1; SKLTENLVALKEIR
Description: as §1

[15] = tested on: T12, PIP4K2A; settings: 2.5 µM, ATP
T12 construct: purchased ActivX Biosciences (KiNativ)
Description: as §1

[16] = tested on: T13, CRK7; settings: 2.5 µM; Lys2; DIKCSNILLNNSGQIK
T13 construct: purchased ActivX Biosciences (KiNativ)
Description: as §1

[17] = tested on: T14, NEK4; settings: 2.5 µM; Lys2; DLKTQNVFLTR
T14 construct: purchased ActivX Biosciences (KiNativ)
Description: as §1

[18] = tested on: T15, NDR1; settings: 2.5 µM
T15 construct: purchased ActivX Biosciences (KiNativ)
Description: as §1

[19] = tested on: T16, MAPKAPK3; settings: 2.5 µM; ATP Loop; QVLGLGVNGKVLECFHR
T16 construct: purchased ActivX Biosciences (KiNativ)
Description: as §1

[20] = tested on: T17, GCN2 domain2; settings: 2.5 µM
T17 construct: GCN2 domain2; purchased ActivX Biosciences (KiNativ)
Description: as §1

[21] = tested on: ZC1/HGK, ZC2/TNIK, ZC3/MINK; settings: 2.5 µM; Lys2; DIKGQNVLLTENAEVK
Description: as §1

[22] = tested on: T18, GSK3B; settings: 2.5 µM; Lys2; DIKPQNLLLDPDTAVLK
T18 construct: purchased ActivX Biosciences (KiNativ)
Description: as §1

[23] = tested on: T19, FRAP; settings: 2.5 µM; ATP; IQSIAPSLQVITSKQRPR
T19 construct: purchased ActivX Biosciences (KiNativ)
Description: as §1

[24] = tested on: T20, CK1a; settings: 2.5 µM; Lys2; DIKPDNFLMGIGR
T20 construct: purchased ActivX Biosciences (KiNativ)
Description: as §1

[25] = tested on: T21, SMG1; settings: 2.5 µM, ATP
T21 construct: purchased ActivX Biosciences (KiNativ)
Description: as §1

[26] = tested on: T22, RSK3 domain1; settings: 2.5 µM; Lys2; DLKPENILLDEEGHIKITDFGLSK
T22 construct: RSK3 domain1; purchased ActivX Biosciences (KiNativ)
Description: as §1

[27] = tested on: T23, AurA; settings: 2.5 µM
T23 construct: purchased ActivX Biosciences (KiNativ)
Description: as §1

[28] = tested on: T24, CDC2; settings: 2.5 µM
T24 construct: purchased ActivX Biosciences (KiNativ)
Description: as §1

[29] = tested on: T25, SBK; settings: 2.5 µM; Lys2; DIKPENVLLFDR
T25 construct: purchased ActivX Biosciences (KiNativ)
Description: as §1

[30] = tested on: T26, ATM; settings: 2.5 µM; ATP; QLVKGRDDLRQDAVMQQVFQMCNTLLQR
T26 construct: purchased ActivX Biosciences (KiNativ)
Description: as §1

[31] = tested on: T27, CDK4; settings: 2.5 µM; Lys2; DLKPENILVTSGGTVK
T27 construct: purchased ActivX Biosciences (KiNativ)
Description: as §1

[32] = Activation Loop, LTDFGLSKESIDHEKK
[33] = Lys2, YLNEIKPPIIHYDLKPGNILLVNGTACGEIK
[34] = Protein Kinase Domain, KPLFHGDSEIDQLFR

C=CC(=O)Nc1cc(C(=O)Nc2nc3cccc(C)c3n2[C@@H]2CCCCN(C(=O)C=C)C2)cs1 [ZNL-0056] gave an Inhibition ([1]; Lys1, ALYATKTLR) of 3.8%, an Inhibition ([1]; Lys2, DIKPDNILIDR) of 20.9% and an Inhibition [2, 32] of -17.5%. It also gave an Inhibition ([2]; Lys1, QLYAMKVLK) of 0.2%, an Inhibition ([3]; Lys1, YVAVKIHQLNK) of 15.3% and an Inhibition [3, 33] of 18.3%. It also gave an Inhibition [4] of -24.2%, an Inhibition [5] of -20.6% and an Inhibition [6] of -6.8%. The Inhibition [7] was 32.8%, the Inhibition [8] was 11.3% and the Inhibition [9] was 16.6%. The Inhibition [10] was -7.9%, the Inhibition [11] was -10.3% and the Inhibition [12] was 4.0%. It also gave an Inhibition [13] of -9.0%, an Inhibition [14] of -16.7% and an Inhibition ([15]; AKELPTLKDNDFINEGQK) of -0.9%. For the same compound, the Inhibition ([15]; YIIKTITSEDVAEMHNILK) was -4.5%, the Inhibition [16] was -9.2% and the Inhibition [17] was 7.6%. It also gave an Inhibition ([18]; Lys1, DTGHVYAMKILR) of 6.1%, an Inhibition ([18]; Lys2, DIKPDNLLLDSK) of 5.7% and an Inhibition [19] of 4.1%. It also gave an Inhibition ([20]; Lys1, LDGCCYAVKR) of 0.0617%, an Inhibition ([20]; Lys2, DLKPVNIFLDSDDHVK) of 5.5% and an Inhibition [21] of 9.3%. It also gave an Inhibition [22] of -4.3%, an Inhibition [23] of -27.2% and an Inhibition [24] of 10.2%. The Inhibition ([25]; DTVTIHSVGGTITILPTKTKPK) was -33.9%, the Inhibition ([25]; SYPYLFKGLEDLHLDER) was -11.5% and the Inhibition [26] was 5.4%. It also gave an Inhibition ([27]; Lys1, FILALKVLFK) of -0.0337%, an Inhibition ([27]; Lys2, DIKPENLLLGSAGELK) of -15.7% and an Inhibition ([28]; Lys1, TTGQVVAMKK) of -18.6%. It also gave an Inhibition ([28]; Lys2, DLKPQNLLIDDK) of -1.3%, an Inhibition [28, 34] of 2.3% and an Inhibition [29] of 9.6%. For the same compound, the Inhibition [30] was -1.9% and the Inhibition [31] was -13.0%.

C=CC(=O)Nc1cc(Nc2nccc(-c3cn(C)c4ccccc34)n2)c(OC)cc1N(C)CCN(C)C [Osimertinib, osimertinib, reference compound] showed an Inhibition ([1]; Lys1, ALYATKTLR) of -8.1%, an Inhibition ([1]; Lys2, DIKPDNILIDR) of 5.0% and an Inhibition [2, 32] of -31.9%. The Inhibition ([2]; Lys1, QLYAMKVLK) was 3.3%, the Inhibition ([3]; Lys1, YVAVKIHQLNK) was 25.0% and the Inhibition [3, 33] was 3.9%. The Inhibition [4] was 1.9%, the Inhibition [5] was 11.1% and the Inhibition [6] was -13.5%. For the same compound, the Inhibition [7] was 19.5%, the Inhibition [8] was -20.1% and the Inhibition [9] was 7.6%. The Inhibition [10] was -28.4%, the Inhibition [11] was -20.8% and the Inhibition [12] was -16.8%. For the same compound, the Inhibition [13] was 8.9%, the Inhibition [14] was -33.1% and the Inhibition ([15]; AKELPTLKDNDFINEGQK) was -3.2%. For the same compound, the Inhibition ([15]; YIIKTITSEDVAEMHNILK) was -14.3%, the Inhibition [16] was 31.9% and the Inhibition [17] was -12.6%. For the same compound, the Inhibition ([18]; Lys1, DTGHVYAMKILR) was -7.9%, the Inhibition ([18]; Lys2, DIKPDNLLLDSK) was 12.0% and the Inhibition [19] was -14.1%. The Inhibition ([20]; Lys1, LDGCCYAVKR) was 3.6%, the Inhibition ([20]; Lys2, DLKPVNIFLDSDDHVK) was -25.4% and the Inhibition [21] was 16.3%. The Inhibition [22] was -0.3%, the Inhibition [23] was -39.1% and the Inhibition [24] was 12.6%. It also gave an Inhibition ([25]; DTVTIHSVGGTITILPTKTKPK) of -6.7%, an Inhibition ([25]; SYPYLFKGLEDLHLDER) of -44.3% and an Inhibition [26] of -9.7%. For the same compound, the Inhibition ([27]; Lys1, FILALKVLFK) was -3.3%, the Inhibition ([27]; Lys2, DIKPENLLLGSAGELK) was 2.6% and the Inhibition ([28]; Lys1, TTGQVVAMKK) was -1.3%. The Inhibition ([28]; Lys2, DLKPQNLLIDDK) was 29.6%, the Inhibition [28, 34] was -18.5% and the Inhibition [29] was -14.3%. For the same compound, the Inhibition [30] was 24.6% and the Inhibition [31] was -1.3%.
